Key:
Type in all cases: in vivo
Digitaria sanguinalis = assay: Seedling stage sealing experiment for water-seeding; settings: 120 g a.i./ha, 15 days, fresh weight control rate
In short: (§1)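 Seeds broadcast on soil in nutrition bowls, covered, kept moist in a water-filled box; compound in acetone diluted with water and spray-tower applied at 120, 60, 30 and 15 g a.i./ha, triplicate. Scored after 15 days in greenhouse on a 0–9 scale of fresh-weight growth control, averaged.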

Echinochloa crusgalli = assay: as above; settings: 120 g a.i./ha, 15 days, fresh weight control rate
Echinochloa phyllopogon = assay: as above; settings: 120 g a.i./ha, 15 days, fresh weight control rate
In short: as §1

Leptochloa chinensis = assay: as above; settings: 120 g a.i./ha, 15 days, fresh weight control rate
In short: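 Seeds sown in soil-filled bowls kept moist in water-filled boxes; compound in acetone diluted with water and spray-applied at 120, 60, 30 and 15 g a.i./ha, triplicate. After 15 days in greenhouse, fresh-weight growth control scored on a 0–9 scale (9 = dead, 0 = no effect), averaged.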

Huaidao (rice cultivar) = assay: Seedling stage sealing experiment for water-seeding (crop safety); settings: 120 g a.i./ha, 15 days, fresh weight control rate; for Huaidao (rice cultivar) plant damage level: seedling stage sealing; for Huaidao (rice cultivar) plant damage level (growth control rate): spray, seedling stage sealing for water-seeding
In short: as §1

[1] = spray, seedling stage sealing for water-seeding

Structure (SMILES)	Digitaria sanguinalis activity level (growth control rate) (Digitaria sanguinalis; seedling stage sealing)	Echinochloa crusgalli activity level (growth control rate) (Echinochloa crusgalli; seedling stage sealing)	Echinochloa phyllopogon activity level (growth control rate) (Echinochloa phyllopogon; seedling stage sealing)	Leptochloa chinensis activity level (growth control rate) (Leptochloa chinensis)	Huaidao (rice cultivar) plant damage level (Huaidao (rice cultivar))	Digitaria sanguinalis activity level (growth control rate) (Digitaria sanguinalis; [1])	Echinochloa crusgalli activity level (growth control rate) (Echinochloa crusgalli; [1])	Echinochloa phyllopogon activity level (growth control rate) (Echinochloa phyllopogon; [1])	Huaidao (rice cultivar) plant damage level (growth control rate) (Huaidao (rice cultivar))
COc1c(Cl)ccc(C2CN(C)C(=O)C2C(=O)Nc2cnn(C)c2Cl)c1F (stereo not shown) [Compound 118]	9	9	6 (Level 6: growth control rate greater than or equal to 70% and less than 80%)	6 (Level 6: growth control rate greater than or equal to 70% and less than 80%)	–	–	–	–	–
Cc1ccc(C2CN(C)C(=O)C2C(=O)Nc2cnn(C)c2Cl)cc1C(F)(F)F (stereo not shown) [Compound 56]	9	9	6 (Level 6: growth control rate greater than or equal to 70% and less than 80%)	9	–	–	–	–	–
Cc1cccc([C@H]2CN(C)C(=O)[C@@H]2C(=O)Nc2cnn(C)c2C2CC2)c1 [139′]	7 (Level 7: growth control rate greater than or equal to 80% and less than 90%)	9	–	9	–	–	–	–	–
CN1CC(c2cc(F)c(F)c(F)c2)C(C(=O)Nc2cnn(C)c2Cl)C1=O (stereo not shown) [Compound 114]	9	9	6 (Level 6: growth control rate greater than or equal to 70% and less than 80%)	9	–	–	–	–	–
COc1cc(F)cc([C@H]2CN(C)C(=O)[C@@H]2C(=O)Nc2cnn(C)c2Cl)c1 [298′]	9	7 (Level 7: growth control rate greater than or equal to 80% and less than 90%)	6 (Level 6: growth control rate greater than or equal to 70% and less than 80%)	7 (Level 7: growth control rate greater than or equal to 80% and less than 90%)	–	–	–	–	–
CCCCOc1cccc(C2CN(C)C(=O)C2C(=O)Nc2cnn(C)c2Cl)c1 (stereo not shown) [Compound 221]	9	–	–	9	–	–	–	–	–
CN1C[C@H](c2cc(C(F)(F)F)cc(C(F)(F)F)c2)[C@@H](C(=O)Nc2cnn(C)c2Cl)C1=O [295′]	9	7 (Level 7: growth control rate greater than or equal to 80% and less than 90%)	6 (Level 6: growth control rate greater than or equal to 70% and less than 80%)	9	–	–	–	–	–
Cc1cc(C)cc(C2CN(C)C(=O)C2C(=O)Nc2cnn(C)c2Cl)c1 (stereo not shown) [Compound 117]	9	9	6 (Level 6: growth control rate greater than or equal to 70% and less than 80%)	9	0	–	–	–	–
CN1C[C@H](c2cc(F)cc(F)c2)[C@@H](C(=O)Nc2cnn(C)c2Cl)C1=O [115′]	8 (Level 8: growth control rate greater than or equal to 90% and less than 100%)	9	–	8 (Level 8: growth control rate greater than or equal to 90% and less than 100%)	–	–	–	–	–
CN1C[C@H](c2cc(F)cc(Cl)c2)[C@@H](C(=O)Nc2cnn(C(F)F)c2Cl)C1=O [554′]	–	–	–	–	–	9	9	9	0
Cc1cc([C@H]2CN(C)C(=O)[C@@H]2C(=O)Nc2cnn(C(F)F)c2Cl)cc(C(F)(F)F)c1 [560′]	–	–	–	–	–	9	9	9	0
Cc1cccc([C@H]2CN(C)C(=O)[C@@H]2C(=O)Nc2cnn(C(F)F)c2Cl)c1 [131′]	9	9	9	9	–	–	–	–	–
CN1CC(c2cccc(C(F)(F)F)c2)C(C(=O)Nc2cnn(C)c2)C1=O (stereo not shown) [Compound 156]	7 (Level 7: growth control rate greater than or equal to 80% and less than 90%)	6 (Level 6: growth control rate greater than or equal to 70% and less than 80%)	6 (Level 6: growth control rate greater than or equal to 70% and less than 80%)	–	0	–	–	–	–
C=CCn1ncc(NC(=O)[C@H]2C(=O)N(C)C[C@@H]2c2cccc(C(F)(F)F)c2)c1Cl [162′]	8 (Level 8: growth control rate greater than or equal to 90% and less than 100%)	9	–	9	–	–	–	–	–
Cc1cccc([C@H]2CN(C)C(=O)[C@@H]2C(=O)Nc2cnn(C)c2S(C)(=O)=O)c1 [531′]	–	–	–	–	–	9	9	9	0
CN1CC(c2ccc(Cl)s2)C(C(=O)Nc2cnn(C)c2Cl)C1=O (stereo not shown) [Compound 339]	7 (Level 7: growth control rate greater than or equal to 80% and less than 90%)	9	–	6 (Level 6: growth control rate greater than or equal to 70% and less than 80%)	–	–	–	–	–
COCn1ncc(NC(=O)[C@H]2C(=O)N(C)C[C@@H]2c2cccc(C(F)(F)F)c2)c1C1CC1 [540′]	–	–	–	–	–	9	9	9	0
Cc1ccc([C@H]2CN(C)C(=O)[C@@H]2C(=O)Nc2cnn(C)c2Cl)cc1F [313′]	9	9	–	9	–	–	–	–	–
Cc1cccc([C@H]2CN(C)C(=O)[C@@H]2C(=O)Nc2cnn(C3CC3)c2C(F)(F)F)c1 [527′]	–	–	–	–	–	9	9	6 (Level 6: growth control rate greater than or equal to 70% and less than 80%)	0

— US20260223850A1, “SUBSTITUTED PYRROLIDONE COMPOUND, PREPARATION METHOD THEREFOR, COMPOSITION AND APPLICATION THEREOF” (QINGDAO KINGAGROOT CHEMICAL COMPOUND CO., LTD., priority 2023, published 2026)
